Data reported in PubChem BioAssay AID330 (DTP/NCI, 2004).
“And” between values parts separate entries of the source, which are not always exact repeats. Identical values can stand only once. Inconclusive results and toxic doses are left out. The calls were made as follows: active = survival T/C of 150% or more; inactive = T/C below 125% in these data.

Test system: P388 leukemia ip, CD2F1 mice, survival T/C
Assay: NCI In Vivo Anticancer Drug Screen. Data for tumor model P388 Leukemia (intraperitoneal) in CD2F1 (CDF1) mice
Conditions: endpoint: median survival time, higher = longer survival
Summary of the method: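 Mice carrying the transplanted tumor received test compound or vehicle. Survival was recorded in each group, and the value is the treated-group measurement divided by that of the vehicle-treated control group.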

[1] = dose: 12.5 mg/kg/injection, schedule: Q01DX009 (ip), vehicle: Klucel (hydroxypropylcellulose) (HPC)
[2] = dose: 25.0 mg/kg/injection, schedule: Q01DX009 (ip), vehicle: Klucel (hydroxypropylcellulose) (HPC)
[3] = dose: 50.0 mg/kg/injection, schedule: Q01DX009 (ip), vehicle: Klucel (hydroxypropylcellulose) (HPC)
[4] = dose: 100.0 mg/kg/injection, schedule: Q04DX002 (ip), vehicle: saline with Tween-80
[5] = dose: 200.0 mg/kg/injection, schedule: Q04DX002 (ip), vehicle: saline with Tween-80
[6] = dose: 60.0 mg/kg/injection, schedule: Q01DX005 (ip), vehicle: saline with Tween-80
[7] = dose: 120.0 mg/kg/injection, schedule: Q01DX005 (ip), vehicle: saline with Tween-80
[8] = dose: 240.0 mg/kg/injection, schedule: Q01DX005 (ip), vehicle: saline with Tween-80
[9] = dose: 50.0 mg/kg/injection, schedule: Q01DX009 (ip), vehicle: saline with Tween-80
[10] = dose: 100.0 mg/kg/injection, schedule: Q01DX009 (ip), vehicle: saline with Tween-80
[11] = dose: 200.0 mg/kg/injection, schedule: Q01DX009 (ip), vehicle: saline with Tween-80
[12] = dose: 50.0 mg/kg/injection, schedule: Q01DX005 (ip), vehicle: Klucel (hydroxypropylcellulose) (HPC)
[13] = dose: 100.0 mg/kg/injection, schedule: Q01DX005 (ip), vehicle: Klucel (hydroxypropylcellulose) (HPC)
[14] = dose: 200.0 mg/kg/injection, schedule: Q01DX005 (ip), vehicle: Klucel (hydroxypropylcellulose) (HPC)
[15] = dose: 50.0 mg/kg/injection, schedule: Q01DX005 (ip), vehicle: saline with Tween-80
[16] = dose: 100.0 mg/kg/injection, schedule: Q01DX005 (ip), vehicle: saline with Tween-80
[17] = dose: 200.0 mg/kg/injection, schedule: Q01DX005 (ip), vehicle: saline with Tween-80
[18] = dose: 12.5 mg/kg/injection, schedule: Q01DX005 (ip), vehicle: Klucel (hydroxypropylcellulose) (HPC)
[19] = dose: 25.0 mg/kg/injection, schedule: Q01DX005 (ip), vehicle: Klucel (hydroxypropylcellulose) (HPC)

Measured: T/C

Nc1nc(CCl)nc(Nc2ccccc2)n1
inactive: [1] 101 % of control | [2] 101 % of control | [3] 101 % of control | dose: 100.0 mg/kg/injection, schedule: Q01DX009 (ip), vehicle: Klucel (hydroxypropylcellulose) (HPC) 99 % of control

CCCCCCCCCCC(O)C1CCC(C2CCC(C(O)C(=O)CCCCCCCCCCCC3CC(C)OC3=O)O2)O1 (stereo not given)
inactive: dose: 0.35 mg/kg/injection, schedule: Q01DX005 (ip), vehicle: Klucel (hydroxypropylcellulose) (HPC) 107 % of control and 115 % of control | dose: 0.7 mg/kg/injection, schedule: Q01DX005 (ip), vehicle: Klucel (hydroxypropylcellulose) (HPC) 112 % of control and 119 % of control | dose: 1.4 mg/kg/injection, schedule: Q01DX005 (ip), vehicle: Klucel (hydroxypropylcellulose) (HPC) 120 % of control

CCOc1ccc(-n2c(=O)c(N=Nc3ccc(C)cc3)c(O)n(-c3ccc(Br)cc3)c2=S)cc1
inactive: [4] 96 % of control | [5] 94 % of control | dose: 400.0 mg/kg/injection, schedule: Q04DX002 (ip), vehicle: saline with Tween-80 90 % of control

C[C@@H]1CC=C[C@@H](NC(=O)OCc2ccccc2)[C@H]1C=O
inactive: [6] 103 % of control | [7] 99 % of control | [8] 98 % of control

S=c1[nH]c(Cl)c(Cl)cc1Cl
inactive: [9] 98 % of control | [10] 105 % of control | [11] 99 % of control

CCOP(=O)(Nc1ccc2c(c1)Cc1c-2cc(Cl)c(NC(C)=O)c1Cl)OCC
inactive: [12] 95 % of control | [13] 97 % of control | [14] 97 % of control

CC(=O)Nc1ccc2c(c1)N(O)C(=O)C2(C)C
inactive: [12] 97 % of control | [13] 95 % of control | [14] 102 % of control

CC(Br)C(=O)c1ccc2cc(Br)c3ccccc3c2c1 (stereo not given)
inactive: dose: 12.5 mg/kg/injection, schedule: Q01DX009 (ip), vehicle: saline with Tween-80 100 % of control | dose: 25.0 mg/kg/injection, schedule: Q01DX009 (ip), vehicle: saline with Tween-80 106 % of control | [9] 116 % of control

O=C1/C(=C/c2cccnc2)Cc2ccccc21
inactive: dose: 12.5 mg/kg/injection, schedule: Q01DX009 (ip), vehicle: other 103 % of control | dose: 25.0 mg/kg/injection, schedule: Q01DX009 (ip), vehicle: other 103 % of control | dose: 50.0 mg/kg/injection, schedule: Q01DX009 (ip), vehicle: other 99 % of control | dose: 100.0 mg/kg/injection, schedule: Q01DX009 (ip), vehicle: other 99 % of control | dose: 200.0 mg/kg/injection, schedule: Q01DX009 (ip), vehicle: other 94 % of control

CCCCCCCCOCC(=O)O
inactive: [9] 107 % of control | [10] 94 % of control | [11] 96 % of control

CN(C)c1ccc2nc(/C=N/NC(N)=S)ccc2c1
inactive: dose: 100.0 mg/kg/injection, schedule: Q04DX002 (ip), vehicle: distilled water + Tween-80 + alcohol 101 % of control | dose: 200.0 mg/kg/injection, schedule: Q04DX002 (ip), vehicle: distilled water + Tween-80 + alcohol 92 % of control

N#CC(C(=O)C(=O)Nc1ccc(Cl)c(Cl)c1)c1c(Cl)cccc1Cl (stereo not given)
inactive: [6] 102 % of control | [7] 97 % of control | [8] 89 % of control

C[As](C)SC1CCC2(C)C(=CCC3C4CCC(=O)C4(C)CCC32)C1 (stereo not given)
inactive: dose: 12.5 mg/kg/injection, schedule: Q01DX009 (ip), vehicle: distilled water + Tween-80 92 % of control | dose: 25.0 mg/kg/injection, schedule: Q01DX009 (ip), vehicle: distilled water + Tween-80 89 % of control and 96 % of control | dose: 50.0 mg/kg/injection, schedule: Q01DX009 (ip), vehicle: distilled water + Tween-80 107 % of control and 97 % of control | dose: 100.0 mg/kg/injection, schedule: Q01DX009 (ip), vehicle: distilled water + Tween-80 119 % of control and 121 % of control | dose: 200.0 mg/kg/injection, schedule: Q01DX009 (ip), vehicle: distilled water + Tween-80 107 % of control and 90 % of control

C[N+](C)=C1C=CC(=C2C=CSC=C2)C=C1
inactive: dose: 12.5 mg/kg/injection, schedule: Q01DX009 (ip), vehicle: saline 108 % of control and 112 % of control

CSc1ccc(N2C(N)=NC(N)=NC2(C)C)cc1
inactive: dose: 6.25 mg/kg/injection, schedule: Q01DX005 (ip), vehicle: saline with Tween-80 100 % of control | dose: 12.5 mg/kg/injection, schedule: Q01DX005 (ip), vehicle: saline with Tween-80 102 % of control | dose: 25.0 mg/kg/injection, schedule: Q01DX005 (ip), vehicle: saline with Tween-80 100 % of control

Oc1ccc2ccc3cccc4ccc1c2c34
inactive: [15] 100 % of control | [16] 100 % of control | [17] 100 % of control

NC(C[O-])C(=O)[O-].NCC(=O)[O-].[Mn+3] (stereo not given)
inactive: [4] 114 % of control | [5] 113 % of control

COC(=O)C1C2CC3c4c(c5ccc(OC)cc5n4[N+](=O)[O-])CCN3CC2CC(OC(=O)c2cc(OC)c(OC)c(OC)c2)C1OC (stereo not given)
inactive: [18] 96 % of control | [19] 98 % of control | [12] 104 % of control | [13] 114 % of control | [14] 88 % of control

CCOC(=O)c1cnc(Sc2c([N+](=O)[O-])ncn2C)nc1N
inactive: [1] 89 % of control | [2] 92 % of control | [3] 86 % of control and 91 % of control

CCCCCCCCCCCCCCN=Cc1c(O)c(O)c(C(C)C)c2cc(C)c(-c3c(C)cc4c(C(C)C)c(O)c(O)c(C=NCCCCCCCCCCCCCC)c4c3O)c(O)c12
inactive: [18] 98 % of control | [19] 90 % of control | [12] 98 % of control | [13] 95 % of control

CCOC(=O)Cn1ncnn1
inactive: dose: 100.0 mg/kg/injection, schedule: Q04DX003 (ip), vehicle: Klucel (hydroxypropylcellulose) (HPC) 103 % of control | dose: 200.0 mg/kg/injection, schedule: Q04DX003 (ip), vehicle: Klucel (hydroxypropylcellulose) (HPC) 100 % of control | dose: 400.0 mg/kg/injection, schedule: Q04DX003 (ip), vehicle: Klucel (hydroxypropylcellulose) (HPC) 102 % of control

NCCCCC(C(=O)O)N(C(=O)OCc1ccccc1)C(=O)OCc1ccccc1 (stereo not given)
inactive: [15] 106 % of control | [16] 101 % of control | [17] 97 % of control

OC(c1cc(-c2ccccc2)nc2ccc(Cl)cc12)C1CCCCN1 (stereo not given)
inactive: [15] 97 % of control | [16] 90 % of control | [17] 99 % of control

Cc1c(Cl)cccc1-n1c(=O)c2[nH]c3ccccc3sc=2c1=O
inactive: [6] 100 % of control | [7] 92 % of control | [8] 97 % of control

Cc1ccc(-c2csc3nc(C)c(CN4CCOCC4)c(=O)n23)cc1
inactive: dose: 25.0 mg/kg/injection, schedule: Q04DX002 (ip), vehicle: Klucel (hydroxypropylcellulose) (HPC) 99 % of control | dose: 50.0 mg/kg/injection, schedule: Q04DX002 (ip), vehicle: Klucel (hydroxypropylcellulose) (HPC) 106 % of control | dose: 100.0 mg/kg/injection, schedule: Q04DX002 (ip), vehicle: Klucel (hydroxypropylcellulose) (HPC) 101 % of control | dose: 200.0 mg/kg/injection, schedule: Q04DX002 (ip), vehicle: Klucel (hydroxypropylcellulose) (HPC) 102 % of control
